Experiments:
[1] = in vivo; cited from earlier work
[2] = design: method as in PMID 26849010, PMID 32903882; conditions: cited from earlier work
[3] = design: method as in PMID 32179522; conditions: cited from earlier work
[4] = biological target: T1, Recombinant human glyoxylase II (Glo2) (Homo sapiens, UniProt Q16775); assay: Non-specific binding to zinc in non-MBLs, glyoxylase II activity; format: biochemical; conditions: 50–500 µM
T1 construct: purchased BioVision Inc., Waltham, MA, USA
Source text: Metal chelators are known to suffer from off-target specificity and as a result have been criticized as potential MBLIs in vivo [44].
The methodology has been previously described. EDTA (purchased from Merck KGaA, Darmstadt, Germany) was included as a positive control.

Compound: O=C(O)CN1CCN(CC(=O)O)CCN(CC(=O)O)CC1 [NOTA]
- Bioavailability [1]: poor bioavailability

Compound: c1ccc(CN(CCN(Cc2ccccn2)Cc2ccccn2)Cc2ccccn2)nc1 [TPEN, N,N,N′,N′-Tetrakis (2-Pyridylmethyl) Ethylenediamine]
- Cytotoxicity [2]: cytotoxicity

Compound: CN(C[C@H](O)[C@@H](O)[C@H](O)[C@H](O)CO)C(=O)c1ccc(CN(Cc2ccccn2)Cc2ccccn2)nc1 [ZN148]
- Decrease in the bacterial load in vivo [3]: approximately 3 log10 units

Compound: COC(=O)C(CC(=O)N[C@@H]1C(=O)N2C(C(=O)O)=C(C[n+]3ccccc3)CS[C@H]12)N1CCN(CC(=O)O)CCN(CC(=O)O)CC1 (some centres unmarked) [BP1]
- Decrease in the bacterial load in vivo [3]: approximately 3 log10 units

Compound: O=C(O)CN(CCN(CC(=O)O)CC(=O)O)CC(=O)O [EDTA, reference compound]
- Glyoxylase II activity [4]: significantly reduced
